In patent publication US8232099B2, “Method for transcription/degradation dual control of protein by antibiotic” (Japan Science and Technology Agency, priority 2007, dated 2012):
Residues, ends and D or L forms follow the SMILES beside them. *: point of attachment. Cbz = O=C(OCc1ccccc1)*

Columns and labels:
Format in all cases: cell-based, human
mutant TetR-EGFP = assay: Flow cytometer fluorescence of HEp-2 cells expressing mutant TetR-EGFP; settings: various concentrations
Description: (§1) All of or any two mutations in combination from three types of mutations, which substitute aspartic acid at the 95th position with asparagine, leucine at the 101st position with serine and glycine at the 102nd position with aspartic acid, were introduced into the tetracycline repressor (TetR), which is an Escherichia coli protein that binds to the antibiotic tetracycline (Tet). The procedure was as follows:
An oligonucleotide encoding an amino acid sequence containing the amino acid substitution to be introduced was synthesized, and this was used to prepare a DNA fragment containing a mutation by PCR reaction. […]
(§2) An oligo-DNA was synthesized, having a base sequence in which the termination codon has been substituted so as to encode another amino acid instead of the termination codon in the TetR gene, and downstream thereof, a sequence that is recognized and cut by a restriction enzyme; this was used to carry out a PCR reaction to prepare a DNA fragment encoding TetR with no termination codon, and this was substituted with the corresponding site on the DNA encoding the wild-type gene. Then, the DNA was cut by a restriction enzyme and ligated with the upstream side of a DNA fragment encoding EGFP in such a way that the translation open reading frames for protein synthesis match (FIG. 1A). […]

[1] = tested on: pOSTet15-eTetREGFP and pOSTet15-hTetREGFP; assay: EGFP expression induction in HEp-2, dual control of transcription and degradation
Description: A cDNA was integrated into the constitutive gene expression vector “pEB6CAG” or the vector “pOSTet15” enabling transcription-regulated expression through doxycycline, which the present inventors developed by applying the methods in Japanese National-phase PCT Laid-Open Patent Publication No. 2003-515314 (the entirety of which is incorporated herein by reference). The cDNA to be expressed integrates a simple fluorescent protein EGFP, or eTetREGFP or hTetREGFP, which degradation control is enabled by doxycycline. […]
Using a commercially available lipofection reagent, this DNA was introduced into the human cell line HEp-2, the cell line was cultured for four days in the presence of 1.5 mg/ml G418, and only cells with the DNA introduced were selected. These cells were subjected to a flow cytometer and the intensity of fluorescence by EGFP was measured cell by cell to determine the average fluorescence intensity thereof.

pOSTet15-TetRhCre = assay: Cre recombination reporter (Venus to DsRed1) in HEp-2, dual control; design: cells displaying red fluorescence only: dose or concentration left out as unconfirmed
Description: As vectors to control the expression of the […] Cre protein, three types of vectors were constructed for: control by protein degradation only, control by transcription only and dual control. […] Three types of vectors were constructed, “pEB6CAG-TetRhCre”, which enables control by degradation alone, and created by turning the hCre cDNA into TetRhCre which enables degradation control by doxycycline, and which was then integrated into the constitutive gene expression vector “pEB6CAG” described above; “pOSTet15-hCre”, which enables control by transcription alone and was created by integrating hCre cDNA into “pOSTet15”: “pOSTet15-TetRhCre”, which enables dual control and created by integrating TetRhCre into “pOSTet15”. In addition to these, as a monitoring vector for confirming the DNA recombination effect by the Cre protein, a recombination reporter vector in which the yellow fluorescent protein Venus was flanked by loxP sequences and the red fluorescent protein DsRed1 was placed downstream thereof, “pEB6CAG-Venus-lox-R1-SRZ” (FIG. 10), was also constructed. […] The expression effect of Cre can be detected simply from this change in fluorescence wavelength (FIG. 10).
Using a commercially available lipofection reagent, this DNA was introduced into the human cell line HEp-2, the cell line was cultured for four days in the presence of 1.5 mg/ml G418 and 0.1 mg/ml zeocin, and only cells with the two species of DNA introduced were selected. Fluorescences at two wavelengths, yellow and red, were measured with a flow cytometer.
Next, comparison on the capabilities was performed, between when Cre protein expression regulation is carried out by protein degradation control alone and transcription control alone, and the dual control system of the present invention. […]
Next, analyses were performed on the influence of the concentration of doxycycline exerted on recombination efficiency. Two species, the vector for Cre dual control and the recombination reporter vector described above, were introduced into a cell, and after selection over […] efficiency.

pEB6CAG-TetRhCre = assay: Cre recombination reporter in HEp-2, control by protein degradation alone; settings: 1.0 μg/ml doxycycline
Description: (§3) As vectors to control the expression of the lambda phage Cre protein, three types of vectors were constructed for: control by protein degradation only, control by transcription only and dual control. […] The expression effect of Cre can be detected simply from this change in fluorescence wavelength (FIG. 10).

pOSTet15-hCre = assay: Cre recombination reporter in HEp-2, control by transcription alone; settings: 1.0 μg/ml doxycycline
Description: as §3

wild-type TetR-EGFP = target: T1, wild-type TetR-EGFP (Escherichia coli, UniProt P04483); assay: Flow cytometer fluorescence of HEp-2 cells expressing wild-type TetR-EGFP; settings: 100 μg/ml MG132, 12 hours
T1 construct: prepare a DNA fragment encoding TetR with no termination codon; expressed in transfected cells; host or cells: human cell line HEp-2, vector pEB6CAG
Description: as §1
Next, cDNAs encoding TetR-EGFP in which wild-type TetR gene and mutation-introduced TetR gene, respectively, are fused with green fluorescent protein (EGFP) were created. The procedure was as follows.
as §2

T1 sequence (P04483 whole entry, the tested form may be a part): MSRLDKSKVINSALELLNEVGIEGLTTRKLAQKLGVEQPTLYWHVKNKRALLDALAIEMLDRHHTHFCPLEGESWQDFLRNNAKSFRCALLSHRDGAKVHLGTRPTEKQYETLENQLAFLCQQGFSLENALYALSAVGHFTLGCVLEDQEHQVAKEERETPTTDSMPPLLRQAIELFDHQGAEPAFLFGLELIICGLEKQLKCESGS

Structure (SMILES) | concentration at which enhancement of fluorescence started to be observed (mutant TetR-EGFP) [µg/mL] | concentration at which the maximum intensity of fluorescence was reached (mutant TetR-EGFP) [µg/mL] | induction ratio of fluorescence, doxycycline added vs not added [1] [times] | cells displaying red fluorescence only (pOSTet15-TetRhCre) [%] | decrease in cell count due to cytotoxicity (pOSTet15-TetRhCre; 1.0 μg/ml doxycycline, treated for three days) | cells changed to red fluorescence (pOSTet15-TetRhCre; 1.0 μg/ml doxycycline, treatment of only one day) [%] | cells in which red fluorescence was detected (red only plus both yellow and red) (pOSTet15-TetRhCre; 1 mg/ml doxycycline) [%] | concentration needed to ensure that recombination occurs (pOSTet15-TetRhCre; four concentration steps from 0.001 μg/ml to 1.0 μg/ml) [µg/mL] | cytotoxicity when doxycycline was added (pEB6CAG-TetRhCre) | cytotoxicity when doxycycline was added (pOSTet15-hCre) | change in intensity of fluorescence (wild-type TetR-EGFP)
C[C@H]1c2cccc(O)c2C(=O)C2=C(O)[C@]3(O)C(=O)C(C(N)=O)=C(O)[C@@H](N(C)C)[C@@H]3[C@@H](O)[C@@H]21 [doxycycline] | ≥ 0.05 | 1.5 | ≥ 400 | 60 | almost no decrease in cell count | ≥ 70 | ≥ 70 | 1.0 | killing cells | cytotoxicity was observed | –
CC(C)C[C@@H](C=O)NC(=O)[C@H](CC(C)C)NC(=O)[C@H](CC(C)C)NC(=O)OCc1ccccc1 [MG132] (Cbz-Leu-Leu-Leu-aldehyde) | – | – | – | – | – | – | – | – | – | – | no major change
